Results reported in ChEMBL document CHEMBL1255200, “Exploration of piperidine-4-yl-aminopyrimidines as HIV-1 reverse transcriptase inhibitors. N-Phenyl derivatives with broad potency against resistant mutant viruses” (Bioorg Med Chem Lett, 2010).

Tests used:
[1] = target: Human immunodeficiency virus type 1 reverse transcriptase (Human immunodeficiency virus 1, UniProt Q72547, K103N/Y181C); assay: Inhibition of HIV1 recombinant reverse transcriptase K103N/Y181C double mutant by SPA heteropolymeric assay
[2] = target: Human immunodeficiency virus type 1 reverse transcriptase (Human immunodeficiency virus 1, UniProt Q72547, Y188L); assay: Inhibition of HIV1 recombinant reverse transcriptase Y188L mutant by SPA heteropolymeric assay
[3] = target: Human immunodeficiency virus type 1 reverse transcriptase (Human immunodeficiency virus 1, UniProt Q72547); assay: Inhibition of HIV1 recombinant wild type reverse transcriptase by SPA heteropolymeric assay
[4] = Clearance in human liver microsomes; type: ADME, Microsome
[5] = test system: Human immunodeficiency virus 1; assay: Antiviral activity against HIV1 harboring reverse transcriptase Y188L mutant infected in human MT4 cells assessed as reduction of virus-induced cytopathic effect by replication assay in presence of 10% FBS; type: functional, organism-based; conditions: Human immunodeficiency virus 1, MT4
[6] = test system: Human immunodeficiency virus 1; assay: Selectivity ratio of IC50 for wild type HIV1 in presence of 40% human serum to IC50 for wild type HIV1 in presence of 10% FBS; type: functional
[7] = test system: Human immunodeficiency virus 1; assay: Antiviral activity against HIV1 harboring reverse transcriptase V106A mutant infected in human MT4 cells assessed as reduction of virus-induced cytopathic effect by replication assay in presence of 10% FBS; type: functional, organism-based; conditions: Human immunodeficiency virus 1, MT4
[8] = test system: Human immunodeficiency virus 1; assay: Antiviral activity against wild type HIV1 infected in human MT4 cells assessed as reduction of virus-induced cytopathic effect by replication assay in presence of 10% FBS; type: functional, organism-based; conditions: Human immunodeficiency virus 1, MT4
[9] = test system: Human immunodeficiency virus 1; assay: Antiviral activity against wild type HIV1 infected in human MT4 cells assessed as reduction of virus-induced cytopathic effect by replication assay in presence of 40% human serum; type: functional, organism-based; conditions: Human immunodeficiency virus 1, MT4
[10] = test system: Human immunodeficiency virus 1; assay: Antiviral activity against HIV1 harboring reverse transcriptase K103N/Y181C double mutant infected in human MT4 cells assessed as reduction of virus-induced cytopathic effect by replication assay in presence of 10% FBS; type: functional, organism-based; conditions: Human immunodeficiency virus 1, MT4
[11] = test system: Human immunodeficiency virus 1; assay: Antiviral activity against HIV1 harboring reverse transcriptase K103N/L100I double mutant infected in human MT4 cells assessed as reduction of virus-induced cytopathic effect by replication assay in presence of 10% FBS; type: functional, organism-based; conditions: Human immunodeficiency virus 1, MT4

Compound | IC50 [1] | IC50 [2] | IC50 [3] | microsomal CLint [4] | IC50 [5] | Ratio IC50 [6] | IC50 [7] | IC50 [8] | IC50 [9] | IC50 [10] | IC50 [11]
Cc1cc(C#N)cc(Cl)c1Oc1nc(NC2CCN(c3cccc(C(N)=O)c3)CC2)ncc1Br | 28 nM | 413 nM | 28 nM | – | – | – | – | – | – | – | –
Cc1cc(C#N)cc(Cl)c1Nc1nc(NC2CCN(c3cccc(C(N)=O)c3)CC2)ncc1Br | 15 nM | 42 nM | 15 nM | 418 µL/min/mg | < 1.2 nM | 8.6 | 0.5 nM | 1.2 nM | 9.9 nM | 4.9 nM | 2.9 nM
Cc1cc(C#N)cc(C)c1Oc1ccnc(NC2CCN(c3ccc(Cl)c(C(N)=O)c3)CC2)n1 | 192 nM | – | 9 nM | – | – | – | – | – | – | – | –
Cc1cc(C#N)cc(C)c1Oc1ccnc(NC2CCN(c3ccc(S(N)(=O)=O)cc3)CC2)n1 | > 1000 nM | > 1000 nM | 24 nM | – | – | – | – | – | – | – | –
Cc1cc(C#N)cc(C)c1Oc1nc(NC2CCN(c3ccccc3C(N)=O)CC2)ncc1Br | 967 nM | – | 32 nM | – | – | – | – | – | – | – | –
Cc1cc(C#N)cc(C)c1Oc1nc(NC2CCN(c3ccc(C(N)=O)cc3)CC2)ncc1Br | > 1000 nM | – | 24 nM | – | – | – | – | – | – | – | –
Cc1cnc(NC2CCN(c3cccc(C(N)=O)c3)CC2)nc1Oc1c(C)cc(C#N)cc1Cl | 6 nM | – | 6 nM | 580 µL/min/mg | 1.4 nM | 8.6 | 0.7 nM | 1.6 nM | 14.2 nM | 5.5 nM | 7.4 nM
O=C1Nc2ccc(Cl)cc2[C@@](C#CC2CC2)(C(F)(F)F)O1 [EFAVIRENZ] | – | – | – | – | > 100 nM | – | – | – | – | 82.8 nM | > 100 nM
Cc1cc(C#N)cc(Cl)c1Oc1nc(NC2CCN(c3cccc(C(N)=O)c3)CC2)ncc1Cl | 20 nM | 48 nM | 20 nM | – | – | – | – | – | – | – | –
Cc1cc(C#N)cc(C)c1Oc1nc(NC2CCN(c3cccc(C(N)=O)c3)CC2)ncc1[N+](=O)[O-] | 64 nM | – | 109 nM | – | – | – | – | – | – | – | –
Cc1cc(C#N)cc(C)c1Oc1ccnc(NC2CCN(c3cccc(C(N)=O)c3)CC2)n1 | 16 nM | 34 nM | 7 nM | – | – | – | – | – | – | – | –
Cc1cc(C#N)cc(C)c1Oc1ccnc(NC2CCN(c3cccc(S(N)(=O)=O)c3)CC2)n1 | 622 nM | 194 nM | 15 nM | – | – | – | – | – | – | – | –
Cc1cc(C#N)cc(C)c1Oc1nc(NC2CCN(c3cccc(C(N)=O)c3)CC2)ncc1Cl | 13 nM | 203 nM | 24 nM | – | – | – | – | – | – | – | –
Cc1cc(C#N)cc(C)c1Oc1nc(NC2CCN(c3cccc(C(N)=O)c3)CC2)ncc1N | 17 nM | 118 nM | 19 nM | – | – | – | – | – | – | – | –
Cc1cc(C#N)cc(F)c1Oc1nc(NC2CCN(c3cccc(C(N)=O)c3)CC2)ncc1Br | 6 nM | 29 nM | 6 nM | 82 µL/min/mg | 5.5 nM | 2.5 | 3.9 nM | 7.3 nM | 18.2 nM | 28 nM | 18.4 nM
Cc1cc(C#N)cc(Cl)c1Nc1ccnc(NC2CCN(c3cccc(C(N)=O)c3)CC2)n1 | 36 nM | – | 36 nM | – | – | – | – | – | – | – | –
COc1cc(C#N)cc(C)c1Oc1nc(NC2CCN(c3cccc(C(N)=O)c3)CC2)ncc1C | 21 nM | 66 nM | 21 nM | – | – | – | – | – | – | – | –
Cc1cnc(NC2CCN(c3cccc(C(N)=O)c3)CC2)nc1Oc1c(C)cc(C#N)cc1C | 15 nM | – | 12 nM | 730 µL/min/mg | < 1.2 nM | 4 | 0.6 nM | 1.1 nM | 4.5 nM | 3.8 nM | 6.7 nM
COc1cc(C#N)cc(C)c1Oc1nc(NC2CCN(c3cccc(C(N)=O)c3)CC2)ncc1Br | 56 nM | – | 56 nM | – | – | – | – | – | – | – | –
